Experimental data from US8835425B2, “Use of selective GABA A α5 negative allosteric modulators for the treatment of central nervous system conditions” (Hoffmann-La Roche Inc., priority 2010, dated 2014).

Experiments:
Ts65Dn and control mice [1] = assay: Spatial learning: Morris water maze; assay type: in vivo; settings: 20 mg/kg p.o. chronic; for Ts65Dn mice performance in MWM acquisition sessions / control mice performance in MWM acquisition sessions: vs vehicle; for latency to reach the platform during cued sessions: in Ts65Dn but not in control mice
Experimental: (§1) For mice studies, active pharmaceutical compounds of present invention were formulated in chocolate-milk (Puleva, Barcelona, Spain). Active pharmaceutical compounds of present invention or vehicle were administered p.o. at a dose of 20 mg/kg for six weeks. Their administration was prolonged during the 30 days of the behavioral assessment.
To evaluate spatial learning the Morris Water Maze was used. The apparatus was a circular tank of 110 cm in diameter, full of water (22-24° C.) made opaque by the addition of powdered milk. Inside the tank, a platform was hidden 1 cm below the water level. Animals were tested at the end of the treatment period in 12 consecutive daily sessions: 8 acquisition sessions (platform submerged), followed by 4 cued sessions (platform visible). All trials were videotaped with a camera located 2 m above the water level. A SMART computerized tracking system (Panlab S. A., Barcelona, Spain) was used to analyze the mouse trajectories, measure escape latency, distance traveled, and swimming speed for each animal in each trial.
In the acquisition sessions (S1-S8), the platform was hidden 1 cm below the water level. From one daily session to the next, the platform was placed in a different location (E, SW, center, and NW); each position was used once every four consecutive daily sessions. Each of the 8 acquisition and 4 cued sessions (one session per day) consisted of four pairs of trials, 30-45 min apart. For each trial pair, the mice were randomly started from one of four positions (N, S, E, W), which was held constant for both trials. The first trial of a pair was terminated when the mouse located the platform or when 60 s had elapsed; the second trial commenced following a period of 20 s, during which the animal was allowed to stay on the platform. Several fixed cues outside of the maze were constantly visible from the pool.
During the cued sessions the platform was visible: the water level was 1 cm below the platform, and its position was indicated with a flag. Eight trials were performed during each session, following the same experimental procedure as in the acquisition sessions.

human GABA A α3β3γ2 [2] = biological target: T1, human GABA A α3β3γ2 (Homo sapiens, UniProt P18507+P34903); assay: Two-microelectrode voltage clamp, modulation of GABA EC10 response in Xenopus oocytes, α3β3γ2; assay type: cell-based; parameters: expressed in transfected cells; host or cells: Xenopus laevis oocytes; settings: % change of EC10 GABA response at 3 μM or at 30×Ki if Ki below 0.1 μM
Experimental: Table 2b. […] Effect at human GABA A α5 receptors: % change of a submaximal (EC10) response to GABA determined at 30×Ki value from the flumazenil binding assay.
Subtype-selective effects were determined on cloned receptors expressed in Xenopus oocytes. Human recombinant GABA A receptors were expressed in Xenopus laevis oocytes. Current responses were evoked in two-microelectrode voltage-clamp condition by applying an EC10 of GABA before and during the co-application of the test compound. Response amplitudes in the presence of the test compound are expressed as percentage of the amplitudes before drug addition.

human GABA A α3β3γ2 [3] = biological target: T1, human GABA A α3β3γ2; assay: [3H]flumazenil competition binding, HEK293 cells expressing human α3β3γ2; parameters: expressed in transfected cells; host or cells: HEK293; settings: for hKi α3/hKi α5: binding selectivity ratio
[4] = system: hippocampal slices of Ts65Dn mice; assay: Long term potentiation in hippocampal slices after chronic treatment; assay type: in vivo; settings: 20 mg/kg p.o. for six weeks, vs control mice
Experimental: The effect of chronic administration of 8581 and R1 on LTP was evaluated in the Ts65Dn mouse model of Down syndrome. 8581, R1 (20 mg/kg p.o.) or vehicle was administered for six weeks. Mice were decapitated 1 hour after the last administration and the brains were rapidly removed. The hippocampi were dissected and 400-μm slices were cut with a tissue chopper. […] Field excitatory postsynaptic potentials (fEPSPs) were recorded from the CA1 stratum radiatum with a glass micropipette (1-4 MΩ) containing 2 M NaCl and evoked by stimulation of the Schaffer collaterals with insulated bipolar platin/iridium electrodes >500 μm away from the recording electrode. The stimulus strength was adjusted to evoke fEPSPs equal to 50% of the relative maximum amplitude without superimposed population spike. After stable baseline recordings (100 μs pulse-duration, 0.033 Hz), long term potentiation (LTP) was induced by TBS (10 trains of 5 pulses at 100 Hz and intervals of 200 ms). The duration of the stimulation pulses was doubled during the tetanus. After 20 min of baseline recording, LTP was induced and recorded for 80 min in each individual hippocampal slice. […] For the analysis, fEPSP slopes were expressed as a percentage of the baseline values recorded. Results from several slices were expressed as mean±SEM. […]

Ts65Dn and control mice [5] = assay: Spontaneous activity: actimetry; assay type: in vivo; settings: 20 mg/kg p.o. chronic, vs vehicle
Experimental: as §1
In this test the circadian variation of the animals' spontaneous locomotor activity during a complete light-dark cycle of 24 hours was evaluated. The apparatus is a device (Acti-system II, Panlab, Barcelona) that detects the changes produced in a magnetic field by the movement of the mice. It registers the movements of animals during a continuous 24 hour cycle (12 hours of light and 12 hours of darkness).

human GABA A α1β2/3γ2 [6] = biological target: T2, human GABA A α1β2/3γ2 (Homo sapiens, UniProt P14867+P18507); assay: Two-microelectrode voltage clamp, modulation of GABA EC10 response in Xenopus oocytes, α1β2/3γ2; assay type: cell-based; parameters: expressed in transfected cells; host or cells: Xenopus laevis oocytes; settings: % change of EC10 GABA response at 3 μM or at 30×Ki if Ki below 0.1 μM
human GABA A α1β2/3γ2 [7] = biological target: T2, human GABA A α1β2/3γ2; assay: [3H]flumazenil competition binding, HEK293 cells expressing human α1β2/3γ2; parameters: expressed in transfected cells; host or cells: HEK293; settings: for Ki: [3H]flumazenil competition, human α1β2/3γ2, read-out: hKi α1; for hKi α1/hKi α5: binding selectivity ratio
Ts65Dn and control mice [8] = assay: Open field; assay type: in vivo; settings: mice of either genotype; for horizontal or vertical activity in open field: 20 mg/kg p.o. chronic; for anxiogenic effect (activity in the center of the open field): chronic administration
Experimental: as §1
Exploratory behavior and anxiety were assessed using a square-shaped open field (55 cm×55 cm, surrounded by a 25-cm-tall fence), divided into 25 equal squares. The animals were placed in the center of the field, and the number of vertical (rearing) activities and horizontal crossings (from square to square, subdivided into center vs. peripheral crossings) were scored in a single 5-min trial.

Row | SMILES | difference between Ts65Dn and control learning curves in MWM (Ts65Dn and control mice [1]) | Ts65Dn mice performance in MWM acquisition sessions (Ts65Dn and control mice [1]) | control mice performance in MWM acquisition sessions (Ts65Dn and control mice [1]) | latency to reach the platform during cued sessions (Ts65Dn and control mice [1]) | Efficacy GABA A α3β3γ2 (human GABA A α3β3γ2 [2]) | Ki (human GABA A α3β3γ2 [3]) | hKi α3/hKi α5 (human GABA A α3β3γ2 [3]) | LTP induced in hippocampal slices of treated Ts65Dn animals [4] | spontaneous activity in home cage, dark or light phase (Ts65Dn and control mice [5]) | Efficacy GABA A α1β2/3γ2 (human GABA A α1β2/3γ2 [6]) | Ki (human GABA A α1β2/3γ2 [7]) | hKi α1/hKi α5 (human GABA A α1β2/3γ2 [7]) | horizontal or vertical activity in open field (Ts65Dn and control mice [8]) | anxiogenic effect (activity in the center of the open field) (Ts65Dn and control mice [8])
1 | FC(F)c1ncn2c1Cn1ncnc1-c1cc(Br)ccc1-2 [Compound 8581, 3-Bromo-10-difluoromethyl-9H-imidazo[1,5-a][1,2,4]triazolo[1,5-d][1,4]benzodiazepine] | reduced | significantly improved Ts65Dn mice performance | did not significantly affect control mice performance | reduced the latency to reach the platform | −1% | 79.6 nM | 17 | not different from that induced in hippocampal slices of control mice | did not differ in the amount of spontaneous activity | −1% | 174 nM | 38 | did not significantly affect | did not produce an anxiogenic effect
2 | Cc1onc(-c2ccc(F)cc2)c1COc1ccc(C(=O)N2CCS(=O)(=O)CC2)cn1 [Compound R1, (1,1-Dioxo-1,6-thiomorpholin-4-yl)-{6-[3-(4-fluoro-phenyl)-5-methyl-isoxazol-4-ylmethoxy]-pyridin-3-yl}-methanone] | reduced | improved Ts65Dn mice cognition | did not significantly affect control mice performance | reduced the latency to reach the platform | −2% | 489 nM | 104 | not different from that induced in hippocampal slices of control mice | did not differ in the amount of spontaneous activity | −4% | 985 nM | 209 | did not significantly affect | did not produce an anxiogenic effect
